Results taken from US8802414B2, “Methods and materials for reducing biofilms” (priority 2007, dated 2014).
“Also recorded” adds a separate entry of the source.

Tests used:
S. aureus SA113 = assay: Microtiter plate biofilm formation assay; format: cell-based, Staphylococcus aureus
Description: (§1) Bacteria stored at −70° C. were freshly streaked on sheep's blood agar or trypticase soy agar before each replicate experiment. For microtiter plate biofilm formation and detachment assays, immunodetection assays, and confocal microscopy assays (unless stated otherwise), isolated colonies from 16 to 24 hour-old plates were grown in trypticase soy broth (BD BBL, Franklin Lakes, N.J.) supplemented with 1% (w/v) sterile-filtered glucose (TSBgluc1%) with shaking at 130 rpm for 22-24 hours. Unless otherwise noted, all experiments were incubated in ambient air at 37° C.
(§2) Biofilm formation was assayed using a microtiter plate assay as described elsewhere (Christensen et al., J. Clin. Microbiol., 22:996-1006 (1985)), with modifications as described elsewhere (Chaignon et al., Appl. Microbiol. Biotechnol., 75(1):125-132 (2007) and Frank and Patel, Diagn. Microbiol. Infect. Dis., 57:355-359 (2007)). Briefly, cultures were adjusted with TSBgluac1% to match the turbidity of a 1.0 McFarland standard (˜1-2×10^8 cfu/mL) and diluted 1:50 in TSBgluc1% or TSBgluc1% containing various concentrations of sodium chloride (1-5%, w/v) or ethanol (0.5-4%, v/v). For experiments examining the effect of glucose concentration on biofilm formation, bacteria were grown overnight, adjusted to 1.0 McFarland, and diluted in TSB containing the corresponding amount of glucose being tested (0.5-5%, w/v). 200 μL aliquots of each diluted culture were placed into four wells of 96-well microtiter plates (Nuclon Delta, Nalge Nunc International, Rochester, N.Y.), and incubated for 24 hours. Cell growth was measured by reading the OD600 nm on a microplate reader (Multiskan, Thermo Electron, Waltham, Mass.). Culture media was discarded, and wells were washed twice by fully submerging plates in deionized water to remove non-adherent cells and allowed to air-dry overnight. Biofilms remaining in the wells were stained with 0.1% safranin for 1 minute, rinsed under running tap water to remove excess stain, and air-dried overnight. In order to ensure homogeneity among stained material in the wells, stained biofilms were resuspended in 200 μL of 30 percent glacial acetic acid, and the OD492 nm was measured.

S. epidermidis RP62A = assay: Microtiter plate biofilm formation assay; format: cell-based, Staphylococcus epidermidis
Description: as §1, §2

[1] = test system: S. lugdunensis clinical isolates; assay: Microtiter plate biofilm formation assay; format: cell-based, Staphylococcus lugdunensis
Description: as §1, §2

[2] = test system: pre-formed biofilms of S. carnosus TM300+pCN27; assay: Microtiter plate biofilm detachment assay; format: cell-based, Staphylococcus carnosus; conditions: 2 hours at 37° C.; safranin OD492
[3] = test system: pre-formed biofilms of S. epidermidis RP62A; assay: Microtiter plate biofilm detachment assay; format: cell-based, Staphylococcus epidermidis; conditions: 2 hours at 37° C.; safranin OD492
[4] = test system: pre-formed S. lugdunensis biofilms; assay: Microtiter plate biofilm detachment assay; format: cell-based, Staphylococcus lugdunensis
Description: 40 mM sodium metaperiodate (NaIO4, Sigma-Aldrich) in water, 40 μg/mL purified recombinant dispersin B (obtained from Kane Biotech Inc., Winnipeg, Manitoba, Canada) in sodium phosphate buffer (50 mM sodium phosphate (pH 5.8), 100 mM NaCl), 100 μg/mL proteinase K (Roche Applied Science) in 10 mM Tris-HCl pH 7.5, 10 U/mL trypsin (Promega Corp., Madison, Wis.) in 10 mM Tris-HCl pH 7.5, 100 μg/mL chymotrypsin (Sigma-Aldrich) in 10 mM Tris-HCl pH 7.5, and 100 μg/mL thermolysin (Sigma-Aldrich) in 10 mM Tris-HCl pH 7.5 were tested for their ability to detach pre-formed S. lugdunensis biofilms from polystyrene microtiter plate wells. For certain experiments, proteinase K was inactivated by boiling for 40 minutes.
Biofilms grown in TSBgluc1% were formed in wells of microtiter plates and washed twice with deionized water, as described above for the microtiter plate biofilm formation assay. 100 μL of NaIO4, enzyme, or suitable control was carefully added so as not to mechanically detach biofilms on the bottoms of wells. Plates were incubated at 37° C. for 2 hours, and contents of wells were discarded and washed twice with deionized water. Plates were air-dried overnight, stained with 0.1% safranin for 1 minute, and processed as described above to quantify the amount of stained biofilm remaining after treatment, relative to treatment with the control reagent. Four wells were measured for each treatment condition. Assays were repeated two or three times on separate days with similar results.

[5] = increasing salt concentrations (1-5% sodium chloride)
[6] = 2 hours at 37° C., safranin OD492, 15 clinical isolates
[7] = increasing ethanol concentrations (0.5-4% v/v) in TSBgluc1%

Q: With `[Cl-].[Na+]` [sodium chloride] as the molecule, how does the “biofilm compared to baseline biofilm formation” value (S. aureus SA113; 5% sodium chloride) read?
A: Its value is “significantly reduced, yet still discernable”.

Q: What about the biofilm levels (S. aureus SA113; TSBgluc1% with 1-2% sodium chloride) of the same molecule?
A: Its biofilm levels is “increase”.

Q: And the “growth (optical density of the biomass in each well)” value (S. aureus SA113; [5])?
A: The value was “not affected”.

Q: And the “biofilm compared to baseline biofilm formation” value (S. epidermidis RP62A; 5% sodium chloride)?
A: The value was “not affected”.

Q: And the biofilm levels (S. epidermidis RP62A; TSBgluc1% with 1-3% sodium chloride)?
A: Its biofilm levels is “increase”.

Q: And the “growth (optical density of the biomass in each well)” value (S. epidermidis RP62A; [5])?
A: Its value is “not affected”.

Q: What about the biofilm formation ([1]; 5% sodium chloride) of the same molecule?
A: The biofilm formation was “Essentially no measurable quantity of biofilm could be detected”.

Q: And the “S. lugdunensis isolates that formed more biofilm” value ([1]; TSBgluc1% containing 1 or 2% sodium chloride, 11/15 isolates)?
A: The value was 73%.

Q: And the “adherence to microtiter wells” value ([1]; higher concentrations of salt (above 2% sodium chloride))?
A: The value was “substantially reduced”.

Q: What about the “growth (optical density of the biomass in each well)” value [1, 5] of the same molecule?
A: The value was “not affected”.

Q: Which results are given for trypsin?
A: biofilm detachment compared to buffer [2]: Concordant results; biofilm detachment compared to buffer [3]: Concordant results; biofilm detachment compared to buffer [4, 6]: Concordant results; biofilm release ([4]; isolates IDRL-2414 and IDRL-2526, 10 U/mL, 2 hours at 37° C.): noticeably more resistant to release

Q: How did the biofilm production (S. aureus SA113; [7]) turn out when `CCO` [ethanol] was run?
A: The biofilm production was “significant reductions in biofilm production”.

Q: What about the biofilm production (S. epidermidis RP62A; [7]) of the same molecule?
A: The biofilm production was “significant reductions in biofilm production”.

Q: And the adherence ([1]; 2% ethanol, all S. lugdunensis that formed measurable baseline biofilms)?
A: The adherence was “prevent the adherence”.

Q: And the “killing / growth of isolates” value ([1]; 2% ethanol, isolates IDRL-2554, IDRL-2640 and IDRL-5254 only)?
A: The value was “killed; also recorded: inhibited growth”.

Q: What about the killing of bacteria ([1]; 4% ethanol, all S. lugdunensis isolates) of the same molecule?
A: Its killing of bacteria is “bactericidal”.

Q: And the “levels of biofilm production” value ([1]; most ethanol concentrations, isolates with baseline biofilm OD492 >=0.150)?
A: The value was “reduced the levels of biofilm production”.

Q: Which “biofilm detachment compared to buffer” value [2] does the source give for `[Na+].[O-][I+3]([O-])([O-])[O-]` [sodium metaperiodate] here?
A: Its value is “essentially completely released”.

Q: What about the “biofilm detachment compared to buffer” value [3] of the same molecule?
A: Its value is “substantial detachment”.

Q: What about the “S. lugdunensis biofilms on whose release there was moderate to little effect” value ([4]; 40 mM, 2 hours at 37° C., 8/15 isolates) of the same molecule?
A: Its value is 53%.

Q: What about the “biofilm detachment compared to buffer” value ([4]; seven isolates IDRL-2394, IDRL-2526, IDRL-2554, IDRL-2588, IDRL-2622, IDRL-2640, IDRL-5258, 40 mM, 2 hours) of the same molecule?
A: Its value is “greater susceptibility”.

Q: chymotrypsin was tested. Which “biofilm detachment compared to buffer” value [4, 6] did it give?
A: Its value is “detach S. lugdunensis biofilms selectively”.
